Experiments:
human PGD receptor (hDP) = target: T1, human PGD receptor (hDP) (Homo sapiens, UniProt Q13258); assay: cAMP antagonism test, human prostaglandin D receptor signal; type: cell-based; conditions: selectivity towards hDP, IC50 measured by cAMP antagonism test
T1 sequence (Q13258 1-359): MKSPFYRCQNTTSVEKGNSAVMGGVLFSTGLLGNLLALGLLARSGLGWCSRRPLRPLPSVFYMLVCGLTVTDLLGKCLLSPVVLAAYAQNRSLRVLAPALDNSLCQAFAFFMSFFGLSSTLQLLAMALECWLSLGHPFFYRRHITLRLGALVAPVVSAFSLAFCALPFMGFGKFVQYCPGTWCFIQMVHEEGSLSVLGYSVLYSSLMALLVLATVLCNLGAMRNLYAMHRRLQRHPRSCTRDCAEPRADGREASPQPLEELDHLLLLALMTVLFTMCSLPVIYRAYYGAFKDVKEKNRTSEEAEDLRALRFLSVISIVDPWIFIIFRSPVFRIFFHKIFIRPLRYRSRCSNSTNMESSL
Excerpt: 3. Detection of Antagonism to the Human Prostaglandin D Receptor Signal
The binding of prostaglandin D2 to the human PGD receptor induces the activation of membrane-located adenylate cyclases and leads to the formation of cAMP. In the presence of the phosphodiesterase inhibitor IBMX, the cAMP accumulated owing to this stimulation and released by cell lysis is used in a competitive detection method. In this test, the cAMP present in the lysate competes with a fluorescence-labelled cAMP (cAMP-d2) for binding to an Eu cryptate-labelled anti-cAMP antibody.
(§1) In the absence of cellular cAMP, a maximal signal is produced, which is attributable to the binding of this cAMP-d2 molecule to the antibody. After excitation of the […] at 337 nm, there is a fluorescence resonance energy transfer (FRET) to the Eu cryptate molecules of the anti-cAMP antibody (labelled therewith), followed by a long-lasting emission signal at 665 nm (and at […]). Both signals are measured in a suitable measurement instrument with a time delay, i.e. after decay of the background fluorescence. Any increase in the low FRET signal caused by prostaglandin E2 administration (measured as well ratio change=emission665nm/emission620nm*10000) indicates the action of antagonists.
3.2.1. Test for Antagonism (Data Per Well of a 384-Well Plate):
(§2) To a test plate with the substance solutions already added (0.05 μl; 100% DMSO, concentration range from 0.8 nM-16.5 nM) were added 4 μl of a cAMP-d2/cell suspension (625000 cells/ml). After a 20-minute preincubation at room temperature (RT), 2 μl of a 3×PGD2 solution (6 nM, in PBS-IBMX) were added and incubated in the presence of the agonist for a further 30 mins at RT (volume: ˜6 μl). Next the reaction was stopped by addition of 2 μl of lysis buffer and incubated for a further 20 mins at RT before the actual measurement (volume: ˜8 μl).

[1] = target: EP4 subtype of the human PGE2 receptor (hEP4) (Homo sapiens, UniProt P35408); assay: cAMP antagonism test, human prostaglandin E2 (subtype EP4) receptor signal; type: cell-based; conditions: selectivity towards hEP4, IC50 measured by cAMP antagonism test
Excerpt: 2. Detection of Antagonism to the Human Prostaglandin E2 (Subtype EP4) Receptor Signal
The binding of PGE2 to the EP4 subtype of the human PGE2 receptor induces the activation of membrane-located adenylate cyclases and leads to the formation of cAMP. In the presence of the phosphodiesterase inhibitor IBMX, the cAMP accumulated owing to this stimulation and released by cell lysis is used in a competitive detection method. In this test, the cAMP present in the lysate competes with a fluorescence-labelled cAMP (cAMP-d2) for binding to an Eu cryptate-labelled anti-cAMP antibody.
as §1, with “cAMP” for “cAMP,”
2.2.1. Test for Antagonism (Data Per Well of a 384-Well Plate):
as §2, with “uM)” for “nM)”, “(312500” for “(625000”, “3×PGE2” for “3×PGD2”, “(0.3” for “(6”, “60” for “30”

ovulation = conditions: cited from earlier work

Sequence of EP4 subtype of the human PGE2 receptor (hEP4) (P35408 whole entry): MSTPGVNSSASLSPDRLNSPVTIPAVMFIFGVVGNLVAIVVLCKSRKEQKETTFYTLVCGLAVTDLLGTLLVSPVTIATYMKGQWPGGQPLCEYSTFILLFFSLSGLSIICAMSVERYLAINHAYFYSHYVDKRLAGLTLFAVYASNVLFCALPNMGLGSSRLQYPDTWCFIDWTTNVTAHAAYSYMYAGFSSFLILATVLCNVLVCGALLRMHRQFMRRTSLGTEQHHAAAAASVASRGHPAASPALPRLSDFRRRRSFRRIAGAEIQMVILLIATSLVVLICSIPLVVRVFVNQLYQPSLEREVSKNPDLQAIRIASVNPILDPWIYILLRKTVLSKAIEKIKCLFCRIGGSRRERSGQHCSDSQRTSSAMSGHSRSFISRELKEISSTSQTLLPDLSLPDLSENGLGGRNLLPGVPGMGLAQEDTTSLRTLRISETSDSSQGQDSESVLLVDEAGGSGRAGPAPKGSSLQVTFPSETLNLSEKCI

Row | SMILES | Selectivity hEP2/hDP (human PGD receptor (hDP)) | Selectivity hEP2/hEP4 [1] | delay of ovulation (ovulation; 25 mg on 9 successive days, in 4 of 6 patients (Pall et al.)) | cycle length (ovulation; daily administration of 400 mg over the entire cycle, increased from 27.2+/−2.4 days (Edelmann et al. 2010)) [days] | increase in ovulatory dysfunction (ovulation; daily oral administration of 400 mg, depending on time and duration of administration (Edelmann et al. 2013))
1 | Cc1c(C(=O)NCC2CCCCO2)ccc2nn(CC3CN(C(=O)c4ccc(Cl)cc4)C3)cc12 (single isomer, unassigned) [Example 146, (S or R)-2-{[1-(4-chlorobenzoyl)azetidin-3-yl]methyl}-4-methyl-N-(3,4,5,6-tetrahydro-2H-pyran-2-ylmethyl)-2H-indazole-5-carboxamide] | xxx (xxx >100) | xxx (xxx >100) |  |  | 
2 | CS(=O)(=O)c1ccc(C2=C(c3ccccc3)C(=O)OC2)cc1 [rofecoxib, 4-(4-mesylphenyl)-3-phenylfuran-2(5H)-one] |  |  | more than 48 hours |  | 
3 | Cc1c(C(=O)NCC(C)OC2CCC2)ccc2nn(CC3CN(C(=O)c4ccc(Cl)cc4)C3)cc12 (single isomer, unassigned) [Example 155, (S or R)-2-{[1-(4-chlorobenzoyl)azetidin-3-yl]methyl}-N-[2-(cyclobutyloxy)-propyl]-4-methyl-2H-indazole-5-carboxamide] | xxx (xxx >100) | xxx (xxx >100) |  |  | 
4 | Cc1c(C(=O)NCC2CCCCO2)ccc2nn(CC3CCN(C(=O)c4ccc(Cl)cc4)CC3)cc12 (single isomer, unassigned) [Example 240, (R or S)-2-{[1-(4-chlorobenzoyl)piperidin-4-yl]methyl}-4-methyl-N-(3,4,5,6-tetrahydro-2H-pyran-2-ylmethyl)-2H-indazole-5-carboxamide] | xxx (xxx >100) | xxx (xxx >100) |  |  | 
5 | Cc1c(C(=O)NCC2CCCCO2)ccc2nn(CC3CN(C(=O)c4ccc(Cl)cc4)C3)cc12 (single isomer, unassigned) [Example 145, (R or S)-2-{[1-(4-chlorobenzoyl)azetidin-3-yl]methyl}-4-methyl-N-(3,4,5,6-tetrahydro-2H-pyran-2-ylmethyl)-2H-indazole-5-carboxamide] | xxx (xxx >100) | xxx (xxx >100) |  |  | 
6 | Cc1ccc(-c2cc(C(F)(F)F)nn2-c2ccc(S(N)(=O)=O)cc2)cc1 [celecoxib, 4-[5-(4-methylphenyl)-3-(trifluoromethyl)-1H-pyrazol-1-yl]benzenesulphonamide] |  |  |  | 28.5 ± 2.5 | 25-30%
7 | Cc1c(C(=O)NCC2COCCO2)ccc2nn(CC3CN(C(=O)c4ccc(Cl)cc4)C3)cc12 (single isomer, unassigned) [Example 143, (S or R)-2-{[1-(4-chlorobenzoyl)azetidin-3-yl]methyl}-N-(1,4-dioxan-2-yl-methyl)-4-methyl-2H-indazole-5-carboxamide] | xxx (xxx >100) | xxx (xxx >100) |  |  | 
8 | COC(C)CNC(=O)c1ccc2nn(CC3CN(C(=O)c4ccc(Cl)cc4)C3)cc2c1C (single isomer, unassigned) [Example 140, (S or R)-2-{[1-(4-chlorobenzoyl)azetidin-3-yl]methyl}-N-(2-methoxypropyl)-4-methyl-2H-indazole-5-carboxamide] | xxx (xxx >100) | xxx (xxx >100) |  |  | 

Now from value to compound, other results behind:

Row | Selectivity hEP2/hDP (human PGD receptor (hDP)) | Selectivity hEP2/hEP4 [1] | SMILES | delay of ovulation (ovulation; 25 mg on 9 successive days, in 4 of 6 patients (Pall et al.)) | cycle length (ovulation; daily administration of 400 mg over the entire cycle, increased from 27.2+/−2.4 days (Edelmann et al. 2010)) [days] | increase in ovulatory dysfunction (ovulation; daily oral administration of 400 mg, depending on time and duration of administration (Edelmann et al. 2013))
9 | xxx (xxx >100) | xxx (xxx >100) | Cc1c(C(=O)NCC2COCCO2)ccc2nn(CC3CCN(C(=O)c4ccc(Oc5ccc(C(F)(F)F)cc5)cc4)CC3)cc12 (single isomer, unassigned) [Example 418, (R or S)—N-(1,4-dioxan-2-ylmethyl)-4-methyl-2-[(1-{4-[4-(trifluoromethyl)-phenoxy]benzoyl}piperidin-4-yl)methyl]-2H-indazole-5-carboxamide] |  |  | 
10 | xxx (xxx >100) | xxx (xxx >100) | Cc1c(C(=O)NCC2COCCO2)ccc2nn(CC3CCN(C(=O)c4ccc(Oc5ccc(C(F)(F)F)cc5)cc4)CC3)cc12 (single isomer, unassigned) [Example 419, (R or S)—N-(1,4-dioxan-2-ylmethyl)-4-methyl-2-[(1-{4-[4-(trifluoromethyl)-phenoxy]benzoyl}piperidin-4-yl)methyl]-2H-indazole-5-carboxamide] |  |  | 
11 | xxx (xxx >100) | xxx (xxx >100) | Cc1c(C(=O)NCC2CCCCO2)ccc2nn(CC3CCN(C(=O)c4ccc(Oc5ccc(C(F)(F)F)cc5)cc4)CC3)cc12 (single isomer, unassigned) [Example 417, (S or R)-4-methyl-N-(3,4,5,6-tetrahydro-2H-pyran-2-ylmethyl)-2-[(1-{4-[4-(trifluoromethyl)phenoxy]benzoyl}piperidin-4-yl)methyl]-2H-indazole-5-carboxamide] |  |  | 
12 | xxx (xxx >100) | xxx (xxx >100) | Cc1c(C(=O)NCC2CCCCO2)ccc2nn(CC3CCN(C(=O)c4ccc(Oc5ccc(C(F)(F)F)cc5)cc4)CC3)cc12 (single isomer, unassigned) [Example 416, (R or S)-4-methyl-N-(3,4,5,6-tetrahydro-2H-pyran-2-ylmethyl)-2-[(1-{4-[4-(trifluoromethyl)phenoxy]benzoyl}piperidin-4-yl)methyl]-2H-indazole-5-carboxamide] |  |  | 
13 | xxx (xxx >100) | xxx (xxx >100) | Cc1c(C(=O)NCC2CCCCO2)ccc2nn(CC3CCN(C(=O)c4ccc(Cl)cc4)CC3)cc12 (single isomer, unassigned) [Example 241, (S or R)-2-{[1-(4-chlorobenzoyl)piperidin-4-yl]methyl}-4-methyl-N-(3,4,5,6-tetrahydro-2H-pyran-2-ylmethyl)-2H-indazole-5-carboxamide] |  |  | 
14 | xxx (xxx >100) | xxx (xxx >100) | Cc1c(C(=O)NCC2COCCO2)ccc2nn(CC3CCN(C(=O)c4ccc(Cl)cc4)CC3)cc12 (single isomer, unassigned) [Example 415, (S or R)-2-{[1-(4-chlorobenzoyl)piperidin-4-yl]methyl}-N-(1,4-dioxan-2-yl-methyl)-4-methyl-2H-indazole-5-carboxamide] |  |  | 

— US9655887B2, “Pharmaceutical composition and the use thereof, and application regime of said pharmaceutical composition for on-demand contraception” (BAYER PHARMA AKTIENGESELLSCHAFT, priority 2013, dated 2017)
